pIC50: −log10 of the molar value.
Experiments:
Type in all cases: functional, cell-based
HeLa = assay: Cytotoxicity against Homo sapiens (human) HeLa cells after 48 hr by MTT assay
HepG2 = assay: Cytotoxicity against Homo sapiens (human) HepG2 cells after 48 hr by MTT assay; details: HepG2, 48 h
[1] = Cytotoxicity against Homo sapiens (human) MDA231 cells after 48 hr by MTT assay; details: MDA-MB-231, 48 h
A549 = assay: Cytotoxicity against Homo sapiens (human) A549 cells after 48 hr by MTT assay; details: A549, 48 h

SMILES	pIC50 (HeLa)	pIC50 (HepG2)	pIC50 [1]	pIC50 (A549)
C=CCC(c1ccccc1F)c1c(O)ccc2ccccc12 (stereo unspecified)	5.17	5.01	5.18	5.11
C=CCC(c1ccc(C(C)C)cc1)c1c(O)ccc2ccccc12 (stereo unspecified)	4.90	4.82	4.78	4.87
C=CCC(c1cccc(F)c1)c1c(O)ccc2ccccc12 (stereo unspecified)	5.06	5.19	5.04	5.07
C=CCC(c1ccc(Cl)cc1)c1c(O)ccc2ccccc12 (stereo unspecified)	5.19	5.13	5.12	5.02
COc1cccc2c1C(=O)c1c(O)c3c(c(O)c1C2=O)C[C@@](O)(C(=O)CO)C[C@@H]3O[C@H]1C[C@H](N)[C@H](O)[C@H](C)O1 [DOXORUBICIN]	> 6.00	–	> 6.00	> 6.00
C=CCC(c1ccc(C)cc1)c1c(O)ccc2ccccc12 (stereo unspecified)	5.21	5.25	5.22	5.17
C=CCC(c1ccc(F)cc1)c1c(O)ccc2ccccc12 (stereo unspecified)	> 6.00	5.92	> 6.00	5.80
C=CCC(c1ccccc1)c1c(O)ccc2ccccc12 (stereo unspecified)	4.12	4.28	4.48	4.23

Source: ChEMBL document CHEMBL3044917, “Multicomponent one-pot synthesis of 2-naphthol derivatives and evaluation of their anticancer activity” (Med Chem Res, 2012)
